Test results reported in ChEMBL document CHEMBL3132784, “Synthesis and biological evaluation of new conformationally restricted S-DABO hybrids as non-nucleoside inhibitors of HIV-1 reverse transcriptase” (Medchemcomm, 2014).
pEC50, pIC50: −log10 of the molar value.

Tests used:
[1] = Selectivity index, ratio of CC50 for human MT4 cells to EC50 for wild-type HIV-1 3B infected in human MT4 cells; format: toxicity, cell-based; settings: read-out: Ratio CC50/EC50
[2] = tested on: Human immunodeficiency virus 2; test: Antiviral activity against HIV-2 ROD infected in human MT4 cells assessed as protection against virus-induced cytopathic effect measured 5 days post-infection by MTT assay; format: functional, organism-based; settings: Human immunodeficiency virus 2, ROD, MT4, 120 h
[3] = tested on: Human immunodeficiency virus 1; test: Antiviral activity against wild-type HIV-1 3B infected in human MT4 cells assessed as protection against virus-induced cytopathic effect measured 5 days post-infection by MTT assay; format: functional, organism-based; settings: Human immunodeficiency virus 1, 3B, MT4, 120 h
[4] = tested on: Human immunodeficiency virus 1; test: Antiviral activity against HIV-1 RES056 harboring RT K103N+Y181C double mutant infected in human MT4 cells assessed as protection against virus-induced cytopathic effect measured 5 days post-infection by MTT assay; format: functional, organism-based; settings: Human immunodeficiency virus 1, RES056, MT4, 120 h
[5] = Cytotoxicity against mock-infected human MT4 cells assessed as decrease in cell viability measured 5 days post-infection by MTT assay; format: cell-based
[6] = molecular target: Human immunodeficiency virus type 1 reverse transcriptase (Human immunodeficiency virus 1, UniProt Q72547); test: Inhibition of HIV-1 wild type recombinant reverse transcriptase p66/p51 assessed as RNA-DNA heteroduplex formation using poly(rA) template/oligo(dT)16 primer incubated prior to enzyme addition by spectrofluorometer analysis

| Compound | selectivity ratio [1] | pEC50 [2] | pEC50 [3] | pEC50 [4] | CC50 at 120 h [5] [µM] | pIC50 [6] |
| --- | --- | --- | --- | --- | --- | --- |
| COc1ccc(CSc2nc(C(C#N)c3cccc(F)c3)c(C)c(=O)[nH]2)cc1 (stereo not drawn) | 6 | < 3.76 | 4.54 | < 3.76 | 173 |  |
| COc1ccc(CSc2nc(C(C#N)c3ccc(F)cc3)c(C)c(=O)[nH]2)cc1 (stereo not drawn) | < 1 | < 4.02 | < 4.02 |  | 95.2 |  |
| COc1ccc(CSc2nc(C(C#N)c3ccccc3Cl)c(C)c(=O)[nH]2)cc1 (stereo not drawn) | 239 | < 3.94 | 6.31 | < 3.94 | 116 | 6.29 |
| COc1ccc(CSc2nc(C(C#N)c3cccc(Cl)c3)c(C)c(=O)[nH]2)cc1 (stereo not drawn) | 9 | < 3.79 | 4.74 | < 3.79 | 161 |  |
| COc1ccc(CSc2nc(C(C#N)c3ccc(Cl)cc3)c(C)c(=O)[nH]2)cc1 (stereo not drawn) | < 1 | < 4.54 | < 4.54 |  | 28.9 |  |
| COc1ccc(CSc2nc(C(C#N)c3ccccc3Br)c(C)c(=O)[nH]2)cc1 (stereo not drawn) | 208 | < 4.06 | 6.38 | < 4.06 | 86.7 | 5.81 |
| COc1ccc(CSc2nc(C(C#N)c3cccc(Br)c3)c(C)c(=O)[nH]2)cc1 (stereo not drawn) | 10 | < 3.81 | 4.79 | < 3.81 | 156 |  |
| CCc1c(C(C#N)c2ccccc2F)nc(SCc2ccc(OC)cc2)[nH]c1=O (stereo not drawn) | 66 | < 3.96 | 5.78 | < 3.96 | 109 |  |
| CCc1c(C(C#N)c2cccc(F)c2)nc(SCc2ccc(OC)cc2)[nH]c1=O (stereo not drawn) | 24 | < 3.76 | 5.15 | < 3.76 | 173 |  |
| CCc1c(C(C#N)c2ccccc2Cl)nc(SCc2ccc(OC)cc2)[nH]c1=O (stereo not drawn) | 57 | < 4.11 | 5.87 | < 4.11 | 76.9 |  |
| CCc1c(C(C#N)c2ccc(Br)cc2)nc(SCc2ccc(OC)cc2)[nH]c1=O (stereo not drawn) | < 1 | < 4.62 | < 4.62 |  | 23.9 |  |
| COc1ccc(CSc2nc(C(C#N)c3ccc(F)cc3)c(C(C)C)c(=O)[nH]2)cc1 (stereo not drawn) | 7 | < 3.86 | 4.69 | < 3.86 | 137 |  |
| COc1ccc(CSc2nc(C(C#N)c3ccccc3Cl)c(C(C)C)c(=O)[nH]2)cc1 (stereo not drawn) | 7 | < 4.56 | 5.41 | < 4.56 | 27.4 |  |
| COc1ccc(CSc2nc(C(C#N)c3ccc(Cl)cc3)c(C(C)C)c(=O)[nH]2)cc1 (stereo not drawn) | ≤ 2 | < 4.07 | < 4.39 | < 4.07 | 85.2 |  |
| COc1ccc(CSc2nc(C(C#N)c3ccccc3Br)c(C(C)C)c(=O)[nH]2)cc1 (stereo not drawn) | 6 | < 4.57 | 5.35 | < 4.57 | 26.7 |  |
| COc1ccc(CSc2nc(C(C#N)c3cccc(Br)c3)c(C(C)C)c(=O)[nH]2)cc1 (stereo not drawn) | 21 | < 3.93 | 5.24 | < 3.93 | 119 |  |
| COc1ccc(CSc2nc(C(C#N)c3c(Cl)cccc3Cl)c(C)c(=O)[nH]2)cc1 (stereo not drawn) | 252 | < 4.31 | 6.72 | < 4.31 | 48.8 | 6.64 |
| COc1ccc(CSc2nc(C(C#N)c3ccc(Br)cc3F)c(C)c(=O)[nH]2)cc1 (stereo not drawn) | < 1 | < 4.65 | < 4.65 |  | 22.5 |  |
| COc1ccc(CSc2nc(C(C#N)c3c(F)cccc3Cl)c(C)c(=O)[nH]2)cc1 (stereo not drawn) | 548 | < 4.30 | 7.04 | < 4.30 | 50.1 | 6.77 |
| COc1ccc(CSc2nc(C(C#N)c3ccc(F)cc3F)c(C)c(=O)[nH]2)cc1 (stereo not drawn) | 8 | < 3.80 | 4.68 | < 3.80 | 157 |  |
| COc1ccc(CSc2nc(C(C#N)c3cc(F)cc(F)c3)c(C)c(=O)[nH]2)cc1 (stereo not drawn) | 7 | < 3.81 | 4.67 | < 3.81 | 154 |  |
| CC(C)Nc1cccnc1N1CCN(C(=O)c2cc3cc(NS(C)(=O)=O)ccc3[nH]2)CC1 [DELAVIRDINE] | > 338 |  |  | < 4.44 | > 36.2 |  |
| O=C1Nc2ccc(Cl)cc2[C@@](C#CC2CC2)(C(F)(F)F)O1 [EFAVIRENZ] |  |  |  |  | > 6.34 |  |
| Cc1ccnc2c1NC(=O)c1cccnc1N2C1CC1 [NEVIRAPINE] |  |  |  |  | > 15 |  |
| Nc1ccn([C@H]2CC[C@@H](CO)O2)c(=O)n1 [ZALCITABINE] | > 169 | 5.79 | 6.24 |  | > 94.7 |  |
| Cc1cn([C@H]2C[C@H](N=[N+]=[N-])[C@@H](CO)O2)c(=O)[nH]c1=O [ZIDOVUDINE] | > 14400 |  | 8.19 | 8.20 | > 93.6 |  |
